The source made the active and inactive calls. The calls are words filed in the database; no cut-off is given here.
Experiments:
[1] = Toxicity in Sprague-Dawley rat assessed as induction of hypothermia at 0.0032 to 10 mg/kg, iv; assay type: organism-based; details: in vivo
[2] = test system: Rattus norvegicus; experiment: Antinociceptive activity in Sprague-Dawley rat dosed intravenously using cumulative dosing every 5 mins until rat maxed-out on hot plate by hot plate test relative to control; assay type: functional
[3] = human, microsomes, 1 µM
[4] = test system: Rattus norvegicus; experiment: Antinociceptive activity in Sprague-Dawley rat dosed intravenously using cumulative dosing every 5 mins until rat maxed-out on hot plate by hot plate test; assay type: functional; details: iv
[5] = biological target: T1, Delta-type opioid receptor (Homo sapiens, UniProt P41143); experiment: Displacement of [3H]DADLE from human recombinant delta opioid receptor expressed in rat Chem-1 (RBL) cell membranes at 100 nM incubated for 60 mins relative to control
[6] = Protein binding in human plasma at 1 uM by equilibrium dialysis; assay type: ADME, cell-free; details: read-out: PPB (converted)
[7] = human, microsomes, 1 h
[8] = biological target: T1, Delta-type opioid receptor; experiment: Displacement of [3H]DADLE from human recombinant delta opioid receptor expressed in rat Chem-1 (RBL) cell membranes at 10000 nM incubated for 60 mins relative to control
[9] = test system: Rattus norvegicus; experiment: Antinociceptive activity in Sprague-Dawley rat dosed intravenously using cumulative dosing every 5 mins until rat maxed-out on hot plate co-treated with 0.1 mg/kg naltrexone by hot plate test; assay type: functional, organism-based
[10] = biological target: Kappa-type opioid receptor (Homo sapiens, UniProt P41145); experiment: Displacement of [3H]U69,593 from human recombinant kappa opioid receptor expressed in rat RBL cell membranes incubated for 60 mins
[11] = biological target: T1, Delta-type opioid receptor; experiment: biochemical
[12] = biological target: T1, Delta-type opioid receptor; experiment: Antagonist activity at human recombinant delta opioid receptor expressed in rat Chem-1 (RBL) cells assessed as inhibition of DPDPE-induced intracellular calcium levels incubated at room temperature by fluorimetry; assay type: functional, cell-based
[13] = in vitro; details: human, plasma
[14] = biological target: Mu-type opioid receptor (Homo sapiens, UniProt P35372); experiment: biochemical
Mu-type opioid receptor, sequence (P35372 whole entry): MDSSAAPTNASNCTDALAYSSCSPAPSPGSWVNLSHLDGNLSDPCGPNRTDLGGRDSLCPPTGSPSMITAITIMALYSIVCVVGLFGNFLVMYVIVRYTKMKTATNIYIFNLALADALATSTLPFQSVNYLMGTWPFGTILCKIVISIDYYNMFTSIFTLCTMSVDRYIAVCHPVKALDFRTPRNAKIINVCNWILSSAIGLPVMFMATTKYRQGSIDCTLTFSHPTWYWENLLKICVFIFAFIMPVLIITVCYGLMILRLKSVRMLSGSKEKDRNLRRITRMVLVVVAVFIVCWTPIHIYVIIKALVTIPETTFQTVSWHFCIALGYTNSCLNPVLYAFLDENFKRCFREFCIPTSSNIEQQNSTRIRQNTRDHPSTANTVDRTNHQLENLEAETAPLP

T1 sequence (P41143 whole entry): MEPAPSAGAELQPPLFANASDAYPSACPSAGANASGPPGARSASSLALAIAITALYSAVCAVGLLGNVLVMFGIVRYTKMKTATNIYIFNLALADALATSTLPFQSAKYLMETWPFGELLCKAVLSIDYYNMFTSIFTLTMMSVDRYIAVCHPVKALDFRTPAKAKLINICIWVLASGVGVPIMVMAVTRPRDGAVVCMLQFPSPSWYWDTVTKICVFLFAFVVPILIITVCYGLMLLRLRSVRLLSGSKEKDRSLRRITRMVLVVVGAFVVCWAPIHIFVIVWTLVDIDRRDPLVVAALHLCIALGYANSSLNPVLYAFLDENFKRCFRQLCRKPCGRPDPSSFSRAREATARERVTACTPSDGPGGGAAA
Kappa-type opioid receptor, sequence (P41145 whole entry): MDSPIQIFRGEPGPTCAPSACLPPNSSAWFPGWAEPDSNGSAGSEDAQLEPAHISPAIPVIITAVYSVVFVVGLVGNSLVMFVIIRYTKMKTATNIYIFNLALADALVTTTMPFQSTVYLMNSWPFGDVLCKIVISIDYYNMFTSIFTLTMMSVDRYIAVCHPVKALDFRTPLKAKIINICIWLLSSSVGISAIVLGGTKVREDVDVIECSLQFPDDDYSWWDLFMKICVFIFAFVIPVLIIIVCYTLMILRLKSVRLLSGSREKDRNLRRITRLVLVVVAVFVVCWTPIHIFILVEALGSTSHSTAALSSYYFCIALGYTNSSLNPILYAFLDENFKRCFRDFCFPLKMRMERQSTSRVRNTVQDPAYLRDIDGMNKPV

Row | Compound | Activity [1] | MPE [2] [%] | Fu [3] | ED50 [4] [mg/kg] | inhibition [5] [%] | fraction unbound at 1 µM [6] | Kel [7] [min⁻¹] | inhibition [8] [%] | Activity [9] | Ki [10] [nM] | Ki [11] [nM] | Kb [12] [nM] | fraction unbound at 1 µM [13] | Ki [14] [nM]
1 | CC[C@@H]1CN2CC[C@@]3(O)C(=Nc4cccc(OC)c43)[C@@H]2C[C@@H]1/C(=C\OC)C(=O)OC | Non-Toxic | 100 | 0.852 | 1.91 | 19.6 | 0.1 | 0.0041 | 93.7 | inactive | 74.1 | 236 | 550 | 0.1 | 
2 | CC[C@@H]1CN2CCc3c([nH]c4cccc(O)c34)[C@@H]2C[C@@H]1/C(=C\OC)C(=O)OC |  |  |  |  |  |  |  |  |  |  |  |  |  | 105
3 | CN1CC[C@]23c4c5ccc(O)c4O[C@H]2[C@@H](O)C=C[C@H]3[C@H]1C5 [MORPHINE] |  |  |  | 5.1 |  |  |  |  | inactive |  |  |  |  | 

From ChEMBL document CHEMBL4376854, “Investigation of the Adrenergic and Opioid Binding Affinities, Metabolic Stability, Plasma Protein Binding Properties, and Functional Effects of Selected Indole-Based Kratom Alkaloids” (J Med Chem, 2020)
